Source: patent US8802597B2, “Herbicidal pyrimidines” (E I du Pont de Nemours and Company, priority 2003, dated 2014)
Where two headings read alike, the source gives them in different places.

What was measured:
Type in all cases: in vivo
[1] = tested on: pigweed (Amaranthus retroflexus); experiment: Test C pre/postemergence
Procedure, shortened: (§1)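 Seeds sown and sprayed preemergence with test compound in non-phytotoxic solvent containing surfactant; postemergence sprays, same formulation, went onto plants 2 to 18 cm tall (1- to 4-leaf stage). Plants held in greenhouse 12 to 14 days, then visually rated against untreated controls on a 0–100 scale (0 no effect, 100 complete control).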

[2] = tested on: johnsongrass (Sorghum halepense); experiment: Test C pre/postemergence
Procedure, shortened: as §1

[3] = tested on: crabgrass (Digitaria sanguinalis); experiment: Test C pre/postemergence
Procedure, shortened: as §1

[4] = tested on: kochia (Kochia scoparia); experiment: Test C pre/postemergence
Procedure, shortened: as §1

[5] = tested on: cocklebur (Xanthium strumarium); experiment: Test C pre/postemergence; conditions: for Plant response rating, Cocklebur: Preemergence
Procedure, shortened: as §1

[6] = tested on: giant foxtail (Setaria faberi); experiment: Test A pre/postemergence
Procedure, shortened: (§2)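 Visual injury scored 0–100 (0 = no effect, 100 = complete control) against untreated controls after about ten days in the greenhouse. Compounds, formulated in non-phytotoxic solvent plus surfactant, were applied preemergence as a directed soil spray and postemergence at the 1- to 2-leaf stage (2–10 cm).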

[7] = tested on: morningglory (Ipomoea spp.); experiment: Test A pre/postemergence
Procedure, shortened: as §2

[8] = tested on: crabgrass (Digitaria sanguinalis); experiment: Test A pre/postemergence
Procedure, shortened: as §2

[9] = tested on: redroot pigweed (Amaranthus retroflexus); experiment: Test A pre/postemergence
Procedure, shortened: as §2

[10] = tested on: velvetleaf (Abutilon theophrasti); experiment: Test A pre/postemergence
Procedure, shortened: as §2

[11] = tested on: barnyardgrass (Echinochloa crus-galli); experiment: Test A pre/postemergence
Procedure, shortened: as §2

[12] = Preemergence, 31 g ai/ha, scale 0 to 100, 0 no effect, 100 complete control
[13] = Preemergence, 62 g ai/ha, scale 0 to 100, 0 no effect, 100 complete control
[14] = Preemergence, 125 g ai/ha, scale 0 to 100
[15] = Postemergence, 125 g ai/ha, 0 to 100 scale (0 no effect, 100 complete control)
[16] = Postemergence, 500 g ai/ha, 0 to 100 scale (0 no effect, 100 complete control)
[17] = Preemergence, 125 g ai/ha, 0 to 100 scale where 0 is no effect and 100 is complete control, approximately ten days
[18] = Preemergence, 500 g ai/ha, 0 to 100 scale where 0 is no effect and 100 is complete control, approximately ten days
[19] = Postemergence, 125 g ai/ha, scale 0 to 100 (0 no effect, 100 complete control)

Nc1nc(C2CC2)nc(C(=O)O)c1Cl [Compound 135, 6-amino-5-chloro-2-cyclopropyl-4-pyrimidinecarboxylic acid]
pest or weed control at 16 g/ha ([1]; Amaranthus retroflexus, post-emergence, Postemergence, 16 g ai/ha, read-out: Plant response rating (scale of 0 to 100), Pigweed): 85%
pest or weed control at 31 g/ha ([1]; Amaranthus retroflexus, post-emergence, Postemergence, 31 g ai/ha, read-out: Plant response rating (scale of 0 to 100), Pigweed): 95%
pest or weed control at 62 g/ha ([1]; Amaranthus retroflexus, post-emergence, Postemergence, 62 g ai/ha, read-out: Plant response rating (scale of 0 to 100), Pigweed): 100%
pest or weed control at 125 g/ha ([1]; Amaranthus retroflexus, post-emergence, Postemergence, 125 g ai/ha, scale 0 to 100 (0 no effect, 100 complete control), read-out: Pigweed plant response rating): 100%
pest or weed control at 16 g/ha ([1]; Amaranthus retroflexus, pre-emergence, Preemergence, 16 g ai/ha, scale 0 to 100, 0 no effect, 100 complete control, read-out: Plant response rating, Pigweed): 70%
Plant response rating, Pigweed [1, 12]: 70
Plant response rating, Pigweed [1, 13]: 80
Plant response rating, Johnsongrass [2, 12]: 0
Plant response rating, Johnsongrass [2, 13]: 5
Plant response rating, Johnsongrass [2, 14]: 40
pest or weed control at 16 g/ha ([2]; Sorghum halepense, post-emergence, Postemergence, 16 g ai/ha, read-out: Plant response rating (scale of 0 to 100), Johnsongrass): 15%
pest or weed control at 31 g/ha ([2]; Sorghum halepense, post-emergence, Postemergence, 31 g ai/ha, read-out: Plant response rating (scale of 0 to 100), Johnsongrass): 35%
pest or weed control at 62 g/ha ([2]; Sorghum halepense, post-emergence, Postemergence, 62 g ai/ha, read-out: Plant response rating (scale of 0 to 100), Johnsongrass): 65%
pest or weed control at 125 g/ha ([2]; Sorghum halepense, post-emergence, Postemergence, 125 g ai/ha, scale 0 to 100 (0 no effect, 100 complete control), read-out: Johnsongrass plant response rating): 70%
pest or weed control at 16 g/ha ([2]; Sorghum halepense, pre-emergence, Preemergence, 16 g ai/ha, scale 0 to 100, 0 no effect, 100 complete control, read-out: Plant response rating, Johnsongrass): 0%
pest or weed control at 16 g/ha ([3]; Digitaria sanguinalis, post-emergence, Postemergence, 16 g ai/ha, read-out: Plant response rating (scale of 0 to 100), Crabgrass): 65%
pest or weed control at 31 g/ha ([3]; Digitaria sanguinalis, post-emergence, Postemergence, 31 g ai/ha, read-out: Plant response rating (scale of 0 to 100), Crabgrass): 75%
pest or weed control at 62 g/ha ([3]; Digitaria sanguinalis, post-emergence, Postemergence, 62 g ai/ha, read-out: Plant response rating (scale of 0 to 100), Crabgrass): 75%
pest or weed control at 125 g/ha ([3]; Digitaria sanguinalis, post-emergence, Postemergence, 125 g ai/ha, scale 0 to 100 (0 no effect, 100 complete control), read-out: Crabgrass plant response rating): 75%
pest or weed control at 16 g/ha ([3]; Digitaria sanguinalis, pre-emergence, Preemergence, 16 g ai/ha, scale 0 to 100, 0 no effect, 100 complete control, read-out: Plant response rating, Crabgrass): 0%
Plant response rating, Crabgrass [3, 12]: 0
Plant response rating, Crabgrass [3, 13]: 0
Plant response rating, Crabgrass [3, 14]: 5
pest or weed control at 16 g/ha ([4]; Bassia scoparia, post-emergence, Postemergence, 16 g ai/ha, read-out: Plant response rating (scale of 0 to 100), Kochia): 75%
pest or weed control at 31 g/ha ([4]; Bassia scoparia, post-emergence, Postemergence, 31 g ai/ha, read-out: Plant response rating (scale of 0 to 100), Kochia): 90%
pest or weed control at 62 g/ha ([4]; Bassia scoparia, post-emergence, Postemergence, 62 g ai/ha, read-out: Plant response rating (scale of 0 to 100), Kochia): 90%
pest or weed control at 125 g/ha ([4]; Bassia scoparia, post-emergence, Postemergence, 125 g ai/ha, scale 0 to 100 (0 no effect, 100 complete control), read-out: Kochia plant response rating): 95%
pest or weed control at 31 g/ha ([4]; Bassia scoparia, pre-emergence, Preemergence, 31 g ai/ha, scale 0 to 100, 0 no effect, 100 complete control, read-out: Plant response rating, Kochia): 75%
Plant response rating, Kochia ([4]; Preemergence, 16 g ai/ha, scale 0 to 100, 0 no effect, 100 complete control): 60
Plant response rating, Kochia [4, 13]: 75
Plant response rating, Kochia [4, 14]: 100
Plant response rating, Cocklebur ([5]; 16 g ai/ha, scale 0 to 100, 0 no effect, 100 complete control): 85
Plant response rating, Cocklebur ([5]; 31 g ai/ha, scale 0 to 100, 0 no effect, 100 complete control): 95
Plant response rating, Cocklebur ([5]; 62 g ai/ha, scale 0 to 100, 0 no effect, 100 complete control): 95
Plant response rating, Cocklebur ([5]; 125 g ai/ha, scale 0 to 100): 100
pest or weed control at 16 g/ha ([5]; Xanthium strumarium, post-emergence, Postemergence, 16 g ai/ha, read-out: Plant response rating (scale of 0 to 100), Cocklebur): 90%
pest or weed control at 31 g/ha ([5]; Xanthium strumarium, post-emergence, Postemergence, 31 g ai/ha, read-out: Plant response rating (scale of 0 to 100), Cocklebur): 100%
pest or weed control at 125 g/ha ([5]; Xanthium strumarium, post-emergence, Postemergence, 125 g ai/ha, scale 0 to 100 (0 no effect, 100 complete control), read-out: Cocklebur plant response rating): 100%
Plant response rating, Foxtail, Giant [6, 15]: 75
Plant response rating, Foxtail, Giant [6, 16]: 80
Plant response rating, Foxtail, Giant [6, 17]: 30
Plant response rating, Foxtail, Giant [6, 18]: 85
Plant response rating, Morningglory [7, 15]: 90
Plant response rating, Morningglory [7, 16]: 100
Plant response rating, Morningglory [7, 17]: 95
Plant response rating, Morningglory [7, 18]: 100
Plant response rating, Crabgrass [8, 15]: 65
Plant response rating, Crabgrass [8, 16]: 65
Plant response rating, Crabgrass [8, 17]: 75
Plant response rating, Crabgrass [8, 18]: 95
Plant response rating, Pigweed [9, 15]: 90
Plant response rating, Pigweed [9, 16]: 95
Plant response rating, Pigweed [9, 17]: 85
Plant response rating, Pigweed [9, 18]: 100
Plant response rating, Velvetleaf [10, 15]: 85
Plant response rating, Velvetleaf [10, 16]: 100
Plant response rating, Velvetleaf [10, 17]: 80
Plant response rating, Velvetleaf [10, 18]: 100
Plant response rating, Barnyardgrass [11, 15]: 75
Plant response rating, Barnyardgrass [11, 16]: 90
Plant response rating, Barnyardgrass [11, 17]: 65
Plant response rating, Barnyardgrass [11, 18]: 90

Nc1nc(-c2ccc(Br)cc2)nc(C(=O)O)c1Br [Compound 136]
Plant response rating (scale of 0 to 100), Pigweed ([1]; Postemergence, 16 g ai/ha): 90
Plant response rating (scale of 0 to 100), Pigweed ([1]; Postemergence, 31 g ai/ha): 100
Plant response rating (scale of 0 to 100), Pigweed ([1]; Postemergence, 62 g ai/ha): 100
Pigweed plant response rating [1, 19]: 100
Plant response rating (scale of 0 to 100), Johnsongrass ([2]; Postemergence, 16 g ai/ha): 60
Plant response rating (scale of 0 to 100), Johnsongrass ([2]; Postemergence, 31 g ai/ha): 85
Plant response rating (scale of 0 to 100), Johnsongrass ([2]; Postemergence, 62 g ai/ha): 85
Johnsongrass plant response rating [2, 19]: 95
Plant response rating (scale of 0 to 100), Crabgrass ([3]; Postemergence, 16 g ai/ha): 60
Plant response rating (scale of 0 to 100), Crabgrass ([3]; Postemergence, 31 g ai/ha): 75
Plant response rating (scale of 0 to 100), Crabgrass ([3]; Postemergence, 62 g ai/ha): 75
Crabgrass plant response rating [3, 19]: 75
Plant response rating (scale of 0 to 100), Kochia ([4]; Postemergence, 16 g ai/ha): 75
Plant response rating (scale of 0 to 100), Kochia ([4]; Postemergence, 31 g ai/ha): 80
Plant response rating (scale of 0 to 100), Kochia ([4]; Postemergence, 62 g ai/ha): 90
Kochia plant response rating [4, 19]: 90
Plant response rating (scale of 0 to 100), Cocklebur ([5]; Postemergence, 16 g ai/ha): 95
Plant response rating (scale of 0 to 100), Cocklebur ([5]; Postemergence, 31 g ai/ha): 100
Plant response rating (scale of 0 to 100), Cocklebur ([5]; Postemergence, 62 g ai/ha): 100
Cocklebur plant response rating [5, 19]: 100
Plant response rating, Foxtail, Giant [6, 15]: 75
Plant response rating, Foxtail, Giant [6, 16]: 80
Plant response rating, Foxtail, Giant [6, 17]: 10
Plant response rating, Foxtail, Giant [6, 18]: 60
Plant response rating, Morningglory [7, 15]: 70
Plant response rating, Morningglory [7, 16]: 80
Plant response rating, Morningglory [7, 17]: 10
Plant response rating, Morningglory [7, 18]: 20
Plant response rating, Crabgrass [8, 15]: 35
Plant response rating, Crabgrass [8, 16]: 70
Plant response rating, Crabgrass [8, 17]: 20
Plant response rating, Crabgrass [8, 18]: 60
Plant response rating, Pigweed [9, 15]: 85
Plant response rating, Pigweed [9, 16]: 100
Plant response rating, Pigweed [9, 17]: 45
Plant response rating, Pigweed [9, 18]: 100
Plant response rating, Velvetleaf [10, 15]: 85
Plant response rating, Velvetleaf [10, 16]: 95
Plant response rating, Velvetleaf [10, 17]: 30
Plant response rating, Velvetleaf [10, 18]: 75
Plant response rating, Barnyardgrass [11, 15]: 50
Plant response rating, Barnyardgrass [11, 16]: 80
Plant response rating, Barnyardgrass [11, 17]: 5
Plant response rating, Barnyardgrass [11, 18]: 40
